Columns and labels:
Format in all cases: in vivo
[1] = tested on: surinam grass (Brachiaria decumbens); assay: Test E greenhouse herbicide test, pre- and postemergence; details: Preemergence
Description: (§1) Seeds of plant species selected from corn (Zea mays), soybean (Glycine max), velvetleaf (Abutilon theophrasti), lambsquarters (Chenopodium album), wild poinsettia (Euphorbia heterophylla), pigweed, palmer (palmer pigweed, Amaranthus palmeri), waterhemp (common waterhemp, Amaranthus rudis), surinam grass (Brachiaria decumbens), crabgrass, large (large crabgrass, Digitaria sanguinalis), crabgrass, Brazilian (Brazilian crabgrass, Digitaria horizontalis), panicum, fall (fall panicum, Panicum dichotomiflorum), foxtail, giant (giant foxtail, Setaria faberii), foxtail, green (green foxtail, Setaria viridis), goosegrass (Eleusine indica), johnsongrass (Sorghum halepense), ragweed (common ragweed, Ambrosia elatior), barnyardgrass (Echinochloa crus-galli), sandbur (southem sandbur, Cenchrus echinatus), arrowleaf sida (Sida rhombifolia), Italian ryegrass (Lolium multiflorum), dayflower (Virginia (VA) dayflower, Commelina virginica), field bindweed (Convolvulus arvensis), momingglory (Ipomoea coccinea), nightshade (eastern black nightshade, Solanum ptycanthum), kochia (Kochia scoparia), nutsedge, yellow (yellow nutsedge, Cyperus esculentus), horseweed (Conyza canadensis), and beggarticks (hairy beggarticks, Bidens pilosa), were planted into a silt loam soil and treated preemergence with test chemicals formulated in a non-phytotoxic solvent mixture which included a surfactant.
(§2) At the same time, plants from these crop and weed species and also waterhemp_RES1, (ALS & Triazine resistant common waterhemp, Amaranthus rudis), and waterhemp_RES2, (ALS & HPPD resistant common waterhemp, Amaranthus rudis) were planted in pots containing Redi-Earth® planting medium (Scotts Company, 14111 Scottslawn Road, Marysville, Ohio 43041) comprising spaghnum peat moss, vermiculite, wetting agent and starter nutrients were treated with postemergence applications of test chemicals formulated in the same manner. Plants ranged in height from 2 to 18 cm for postemergence treatments (1- to 4-leaf stage). Treated plants and controls were maintained in a greenhouse for 14 to 21 d, after which time all species were compared to controls and visually evaluated. Plant response ratings, summarized in Table E, are based on a scale of 0 to 100 where 0 is no effect and 100 is complete control. A dash (-) response means no test result.

[2] = tested on: crabgrass, Brazilian (Brazilian crabgrass, Digitaria horizontalis); assay: as above
Description: as §1, §2

[3] = tested on: waterhemp (common waterhemp, Amaranthus rudis); assay: as above
Description: as §1, §2

[4] = tested on: goosegrass (Eleusine indica); assay: as above; details: Preemergence
Description: as §1, §2

[5] = tested on: crabgrass, large (large crabgrass, Digitaria sanguinalis); assay: as above; details: Preemergence
Description: as §1, §2

[6] = tested on: horseweed (Conyza canadensis); assay: as above
Description: as §1, §2

[7] = tested on: field bindweed (Convolvulus arvensis); assay: as above
Description: as §1, §2

[8] = tested on: ragweed (common ragweed, Ambrosia elatior); assay: as above
Description: as §1, §2

[9] = tested on: panicum, fall (fall panicum, Panicum dichotomiflorum); assay: as above
Description: as §1, §2

[10] = tested on: sandbur (southem sandbur, Cenchrus echinatus); assay: as above
Description: as §1, §2

[11] = tested on: beggarticks (hairy beggarticks, Bidens pilosa); assay: as above
Description: as §1, §2

[12] = tested on: foxtail, giant (giant foxtail, Setaria faberii); assay: as above; details: Preemergence
Description: as §1, §2

kochia (Kochia scoparia) = assay: as above
Description: as §1, §2

[13] = tested on: waterhemp_RES2 (ALS & HPPD resistant common waterhemp, Amaranthus rudis); assay: Test E greenhouse herbicide test, postemergence
Description: as §2

[14] = tested on: waterhemp_RES1 (ALS & Triazine resistant common waterhemp, Amaranthus rudis); assay: Test E greenhouse herbicide test, postemergence
Description: as §2

[15] = 62 g ai/ha, scale 0 to 100 (0 no effect, 100 complete control)
[16] = 125 g ai/ha, scale 0 to 100 (0 no effect, 100 complete control)
[17] = 31 g ai/ha, scale 0 to 100, 0 no effect, 100 complete control
[18] = 62 g ai/ha, Preemergence, scale 0 to 100 (0 no effect, 100 complete control)
[19] = Preemergence, 31 g ai/ha, scale 0 to 100, 0 no effect, 100 complete control
[20] = Preemergence, 125 g ai/ha, visual, scale 0 no effect to 100 complete control
[21] = 125 g ai/ha, Preemergence, scale 0 to 100 (0 no effect, 100 complete control)
[22] = 125 g ai/ha, visual, scale 0 no effect to 100 complete control
[23] = 16 g ai/ha, visual, scale 0 no effect to 100 complete control
[24] = 31 g ai/ha, visual, scale 0 no effect to 100 complete control
[25] = 62 g ai/ha, Postemergence, scale 0 to 100 (0 no effect, 100 complete control)
[26] = 125 g ai/ha, Postemergence, scale 0 to 100 (0 no effect, 100 complete control)
[27] = Postemergence, 16 g ai/ha, visual, scale 0 no effect to 100 complete control
[28] = Postemergence, 31 g ai/ha, visual, scale 0 no effect to 100 complete control
[29] = 250 g ai/ha, scale 0 to 100 (0 no effect, 100 complete control)
[30] = 250 g ai/ha, Postemergence, scale 0 to 100 (0 no effect, 100 complete control)

Cc1cc(C)c2ccccc2c1-c1c(O)c(C)nn(C)c1=O [Compound 21]
Plant response rating, Surinam Grass [1, 15]: 100 | Plant response rating, Surinam Grass [1, 16]: 100 | Plant response rating, Surinam Grass [1, 17]: 95 | Plant response rating, Crabgrass, Brazil [2, 18]: 98 | Plant response rating, Crabgrass, Brazil [2, 19]: 90 | Plant response rating, Crabgrass, Brazil [2, 20]: 100 | Plant response rating, Waterhemp [3, 18]: 95 | Plant response rating, Waterhemp [3, 21]: 100 | Plant response rating, Waterhemp [3, 19]: 95 | Plant response rating, Goosegrass [4, 15]: 95 | Plant response rating, Goosegrass [4, 17]: 90 | Plant response rating, Goosegrass [4, 22]: 95 | Plant response rating, Crabgrass, Large [5, 15]: 85 | Plant response rating, Crabgrass, Large [5, 17]: 65 | Plant response rating, Crabgrass, Large [5, 22]: 100 | Plant response rating, Horseweed [6, 18]: 100 | Plant response rating, Horseweed [6, 19]: 100 | Plant response rating, Horseweed [6, 20]: 100 | Plant response rating, Field Bindweed [7, 18]: 95 | Plant response rating, Field Bindweed [7, 19]: 35 | Plant response rating, Field Bindweed [7, 20]: 98 | Plant response rating, Ragweed [8, 18]: 98 | Plant response rating, Ragweed [8, 21]: 100 | Plant response rating, Ragweed [8, 19]: 95 | Plant response rating, Panicum, Fall [9, 18]: 100 | Plant response rating, Panicum, Fall [9, 21]: 100 | Plant response rating, Panicum, Fall [9, 19]: 100 | Plant response rating, Sandbur [10, 18]: 80 | Plant response rating, Sandbur [10, 21]: 90 | Plant response rating, Sandbur [10, 19]: 80 | Plant response rating, Beggarticks [11, 18]: 100 | Plant response rating, Beggarticks [11, 19]: 100 | Plant response rating, Beggarticks [11, 20]: 100 | Plant response rating, Foxtail, Giant [12, 15]: 98 | Plant response rating, Foxtail, Giant [12, 17]: 95 | Plant response rating, Foxtail, Giant [12, 22]: 100 | Plant response rating, Kochia (kochia (Kochia scoparia); [18]): 0 | Plant response rating, Kochia (kochia (Kochia scoparia); [19]): 0 | Plant response rating, Kochia (kochia (Kochia scoparia); [20]): 65

CC(=O)Oc1c(C)nn(C)c(=O)c1-c1c(C)cc(C)c2ccccc12 [Compound 99]
Plant response rating, Waterhemp_RES2 [13, 23]: 50 | Plant response rating, Waterhemp_RES2 [13, 24]: 50 | Plant response rating, Waterhemp_RES2 [13, 16]: 60 | Plant response rating, Waterhemp_RES1 [14, 23]: 50 | Plant response rating, Waterhemp_RES1 [14, 24]: 50 | Plant response rating, Waterhemp_RES1 [14, 16]: 75 | Plant response rating, Crabgrass, Brazil [2, 25]: 10 | Plant response rating, Crabgrass, Brazil [2, 26]: 20 | Plant response rating, Crabgrass, Brazil [2, 27]: 5 | Plant response rating, Crabgrass, Brazil [2, 28]: 10 | Plant response rating, Waterhemp [3, 26]: 75 | Plant response rating, Waterhemp [3, 27]: 65 | Plant response rating, Waterhemp [3, 28]: 45 | Plant response rating, Horseweed [6, 25]: 60 | Plant response rating, Horseweed [6, 26]: 75 | Plant response rating, Horseweed [6, 27]: 40 | Plant response rating, Horseweed [6, 28]: 50 | Plant response rating, Field Bindweed [7, 25]: 70 | Plant response rating, Field Bindweed [7, 26]: 80 | Plant response rating, Field Bindweed [7, 27]: 50 | Plant response rating, Field Bindweed [7, 28]: 60 | Plant response rating, Ragweed [8, 25]: 80 | Plant response rating, Ragweed [8, 26]: 90 | Plant response rating, Ragweed [8, 27]: 50 | Plant response rating, Ragweed [8, 28]: 75 | Plant response rating, Panicum, Fall [9, 25]: 50 | Plant response rating, Panicum, Fall [9, 26]: 70 | Plant response rating, Panicum, Fall [9, 27]: 20 | Plant response rating, Panicum, Fall [9, 28]: 30 | Plant response rating, Sandbur [10, 26]: 40 | Plant response rating, Sandbur [10, 27]: 20 | Plant response rating, Sandbur [10, 28]: 30 | Plant response rating, Beggarticks [11, 25]: 100 | Plant response rating, Beggarticks [11, 26]: 95 | Plant response rating, Beggarticks [11, 27]: 70 | Plant response rating, Beggarticks [11, 28]: 80 | Plant response rating, Kochia (kochia (Kochia scoparia); [25]): 60 | Plant response rating, Kochia (kochia (Kochia scoparia); [26]): 70 | Plant response rating, Kochia (kochia (Kochia scoparia); [27]): 55 | Plant response rating, Kochia (kochia (Kochia scoparia); [28]): 50

Cc1nn(C)c(=O)c(-c2cccc3ccc(Br)cc23)c1O [Compound 126]
Plant response rating, Waterhemp_RES2 [13, 24]: 55 | Plant response rating, Waterhemp_RES2 [13, 16]: 70 | Plant response rating, Waterhemp_RES2 [13, 29]: 85 | Plant response rating, Waterhemp_RES1 [14, 24]: 75 | Plant response rating, Waterhemp_RES1 [14, 16]: 90 | Plant response rating, Waterhemp_RES1 [14, 29]: 100 | Plant response rating, Crabgrass, Brazil [2, 25]: 25 | Plant response rating, Crabgrass, Brazil [2, 26]: 40 | Plant response rating, Crabgrass, Brazil [2, 30]: 50 | Plant response rating, Crabgrass, Brazil [2, 28]: 10 | Plant response rating, Waterhemp [3, 26]: 90 | Plant response rating, Waterhemp [3, 30]: 90 | Plant response rating, Waterhemp [3, 28]: 75 | Plant response rating, Horseweed [6, 25]: 75 | Plant response rating, Horseweed [6, 26]: 85 | Plant response rating, Horseweed [6, 30]: 80 | Plant response rating, Horseweed [6, 28]: 70 | Plant response rating, Field Bindweed [7, 25]: 90 | Plant response rating, Field Bindweed [7, 26]: 95 | Plant response rating, Field Bindweed [7, 30]: 100 | Plant response rating, Field Bindweed [7, 28]: 85 | Plant response rating, Ragweed [8, 25]: 80 | Plant response rating, Ragweed [8, 26]: 100 | Plant response rating, Ragweed [8, 30]: 100 | Plant response rating, Ragweed [8, 28]: 70 | Plant response rating, Panicum, Fall [9, 25]: 35 | Plant response rating, Panicum, Fall [9, 26]: 30 | Plant response rating, Panicum, Fall [9, 30]: 35 | Plant response rating, Panicum, Fall [9, 28]: 10 | Plant response rating, Sandbur [10, 26]: 40 | Plant response rating, Sandbur [10, 30]: 40 | Plant response rating, Sandbur [10, 28]: 0 | Plant response rating, Beggarticks [11, 25]: 100 | Plant response rating, Beggarticks [11, 26]: 100 | Plant response rating, Beggarticks [11, 30]: 100 | Plant response rating, Beggarticks [11, 28]: 100 | Plant response rating, Kochia (kochia (Kochia scoparia); [25]): 100 | Plant response rating, Kochia (kochia (Kochia scoparia); [26]): 100 | Plant response rating, Kochia (kochia (Kochia scoparia); [30]): 100 | Plant response rating, Kochia (kochia (Kochia scoparia); [28]): 100
